The text below walks through data of patent US10336734B2, “Inhibitors of ACK1/TNK2 tyrosine kinase” (H. LEE MOFFITT CANCER CENTER AND RESEARCH INSTITUTE, INC., priority 2015, dated 2019).

Counter-ions that a name gives are not always drawn.

A word on the inhibition: it is the change of the read-out against control, counted positive when it falls. As usually defined, the IC50 is the midpoint of a concentration-inhibition curve. The low end stands for greater potency in that assay, the high end for weaker potency in that assay.

Assay [1] has as its system histone H4 Y88-phosphorylation. As to the kind of experiment: Immunoblot of H4 Y88-phosphorylation in ligand-treated PC cells. In kind it is cell-based. The conditions noted are these: serum and androgen starved PC cells, ligand activated; 5 μM (DHT 10 nM). How it is done: FIG. 2A through 2C. ACK1 inhibitor (R)-9bMS suppresses epigenetic modification of histone H4 at tyrosine 88.
To assess endogenous H4-phosphorylation, serum and androgen starved PC cells were treated with ligands to activate ACK1. It led to robust H4 Y88-phosphorylation, suppressed upon (R)-9bMS treatment (FIG. 2A). […] Moreover, H4 Y88-phosphorylation was also detected in human CRPCs using mass spectrometry, which was validated by immunoblotting (FIG. 3A-3C).
(In western blotting, separated proteins are transferred to a membrane and probed.)

Assay [2] concerns LNCaP cells expressing constitutively activated ACK1. Particulars: mouse xenograft model; cited from earlier work.
In assay [3] the target is T1, ACK1 (Homo sapiens (Human), UniProt Q07912). As to the kind of experiment: ACK1 ELISA. The conditions noted are these: read-out: ACK1 ELISA % inhibition at 10 μM. It counts as biochemical.
A further assay deals with ALK (Homo sapiens (Human), UniProt Q9UM73). The assay can be described thus: ALK IC50 (RB). In kind it is biochemical.
The target in a further assay is JAK2 (Homo sapiens (Human), UniProt O60674). As to the kind of experiment: JAK2 IC50 (RB). In kind it is biochemical.
The target of another assay is c-Src (Homo sapiens (Human), UniProt P12931). As to the kind of experiment: c-Src IC50 (RB). In kind it is biochemical.
The target in assay [4] is T1, ACK1. The assay can be described thus: ACK1 IC50 (RB). It counts as biochemical.
Assay [5] deals with non-small cell lung cancer (NSCLC) cell lines. The conditions noted are these: panel of NSCLC cell lines; cited from earlier work.

Sequence of ALK (Q9UM73 19-1620, species assumed): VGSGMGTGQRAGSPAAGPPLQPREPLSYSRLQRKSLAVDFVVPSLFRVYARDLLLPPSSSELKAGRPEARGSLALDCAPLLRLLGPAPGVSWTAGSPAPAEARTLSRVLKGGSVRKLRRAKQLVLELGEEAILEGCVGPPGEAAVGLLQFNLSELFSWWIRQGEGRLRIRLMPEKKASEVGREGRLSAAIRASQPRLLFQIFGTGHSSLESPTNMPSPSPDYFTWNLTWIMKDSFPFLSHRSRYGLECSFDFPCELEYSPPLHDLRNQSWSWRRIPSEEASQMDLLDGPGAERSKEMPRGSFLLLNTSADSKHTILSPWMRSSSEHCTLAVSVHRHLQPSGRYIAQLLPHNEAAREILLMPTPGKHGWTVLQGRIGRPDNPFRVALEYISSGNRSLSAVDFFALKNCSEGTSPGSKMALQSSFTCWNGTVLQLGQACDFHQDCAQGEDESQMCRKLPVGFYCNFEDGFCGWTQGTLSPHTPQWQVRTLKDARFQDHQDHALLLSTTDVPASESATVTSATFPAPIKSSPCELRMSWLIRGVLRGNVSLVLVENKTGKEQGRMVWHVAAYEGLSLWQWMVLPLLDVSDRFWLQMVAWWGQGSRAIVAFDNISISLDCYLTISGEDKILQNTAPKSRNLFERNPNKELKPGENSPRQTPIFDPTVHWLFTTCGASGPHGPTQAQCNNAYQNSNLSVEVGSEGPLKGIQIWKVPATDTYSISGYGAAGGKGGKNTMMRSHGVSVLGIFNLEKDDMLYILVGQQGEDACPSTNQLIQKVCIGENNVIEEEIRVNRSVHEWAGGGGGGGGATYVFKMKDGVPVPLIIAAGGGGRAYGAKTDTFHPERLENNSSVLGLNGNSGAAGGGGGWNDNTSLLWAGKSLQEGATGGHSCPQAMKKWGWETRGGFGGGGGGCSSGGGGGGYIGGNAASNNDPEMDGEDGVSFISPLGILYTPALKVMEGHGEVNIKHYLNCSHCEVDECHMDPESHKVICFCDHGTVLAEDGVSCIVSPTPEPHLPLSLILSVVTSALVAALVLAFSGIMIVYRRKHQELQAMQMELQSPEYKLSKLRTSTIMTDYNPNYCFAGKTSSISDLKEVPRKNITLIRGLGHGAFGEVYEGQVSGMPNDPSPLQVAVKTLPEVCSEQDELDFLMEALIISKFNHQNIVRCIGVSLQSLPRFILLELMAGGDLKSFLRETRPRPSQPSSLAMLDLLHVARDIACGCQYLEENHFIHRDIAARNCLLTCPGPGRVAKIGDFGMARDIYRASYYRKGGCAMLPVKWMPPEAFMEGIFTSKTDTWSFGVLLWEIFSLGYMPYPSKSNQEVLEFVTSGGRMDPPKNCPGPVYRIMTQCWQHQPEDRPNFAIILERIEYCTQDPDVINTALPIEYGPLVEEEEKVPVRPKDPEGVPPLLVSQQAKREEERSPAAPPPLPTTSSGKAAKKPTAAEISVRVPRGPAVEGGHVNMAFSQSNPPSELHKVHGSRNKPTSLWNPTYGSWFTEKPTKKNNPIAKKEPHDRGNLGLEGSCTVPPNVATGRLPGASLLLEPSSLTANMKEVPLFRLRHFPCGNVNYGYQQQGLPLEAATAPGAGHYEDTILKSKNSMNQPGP
Sequence of JAK2 (O60674 whole entry, species assumed): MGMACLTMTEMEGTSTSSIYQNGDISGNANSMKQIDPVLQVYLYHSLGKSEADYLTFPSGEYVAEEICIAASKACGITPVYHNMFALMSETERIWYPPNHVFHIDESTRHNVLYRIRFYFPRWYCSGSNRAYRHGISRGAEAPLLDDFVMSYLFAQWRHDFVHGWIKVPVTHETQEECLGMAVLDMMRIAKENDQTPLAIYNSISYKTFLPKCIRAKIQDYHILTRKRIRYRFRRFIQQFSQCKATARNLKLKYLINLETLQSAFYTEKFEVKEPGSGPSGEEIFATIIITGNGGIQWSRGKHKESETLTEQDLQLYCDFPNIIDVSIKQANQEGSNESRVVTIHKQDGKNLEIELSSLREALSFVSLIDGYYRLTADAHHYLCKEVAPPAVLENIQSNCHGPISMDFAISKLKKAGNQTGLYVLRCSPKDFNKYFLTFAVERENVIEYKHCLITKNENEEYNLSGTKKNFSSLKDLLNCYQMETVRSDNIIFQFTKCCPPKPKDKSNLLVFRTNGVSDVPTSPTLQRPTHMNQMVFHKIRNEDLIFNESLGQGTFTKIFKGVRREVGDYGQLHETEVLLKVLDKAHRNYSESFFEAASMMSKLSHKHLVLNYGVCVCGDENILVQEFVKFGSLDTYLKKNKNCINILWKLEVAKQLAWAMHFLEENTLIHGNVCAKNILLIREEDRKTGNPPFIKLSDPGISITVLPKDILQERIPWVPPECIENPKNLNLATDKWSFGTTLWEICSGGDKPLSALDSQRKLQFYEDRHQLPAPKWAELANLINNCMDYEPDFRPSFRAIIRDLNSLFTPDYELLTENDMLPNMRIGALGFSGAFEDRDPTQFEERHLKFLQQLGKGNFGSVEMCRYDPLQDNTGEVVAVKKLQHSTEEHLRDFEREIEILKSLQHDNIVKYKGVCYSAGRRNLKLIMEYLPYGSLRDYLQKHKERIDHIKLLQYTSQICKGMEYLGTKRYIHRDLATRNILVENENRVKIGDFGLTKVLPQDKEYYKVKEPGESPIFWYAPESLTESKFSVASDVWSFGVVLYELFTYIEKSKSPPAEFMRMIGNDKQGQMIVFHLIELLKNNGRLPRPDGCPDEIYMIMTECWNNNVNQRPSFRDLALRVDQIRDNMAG
Sequence of c-Src (P12931 whole entry, looked up, species assumed): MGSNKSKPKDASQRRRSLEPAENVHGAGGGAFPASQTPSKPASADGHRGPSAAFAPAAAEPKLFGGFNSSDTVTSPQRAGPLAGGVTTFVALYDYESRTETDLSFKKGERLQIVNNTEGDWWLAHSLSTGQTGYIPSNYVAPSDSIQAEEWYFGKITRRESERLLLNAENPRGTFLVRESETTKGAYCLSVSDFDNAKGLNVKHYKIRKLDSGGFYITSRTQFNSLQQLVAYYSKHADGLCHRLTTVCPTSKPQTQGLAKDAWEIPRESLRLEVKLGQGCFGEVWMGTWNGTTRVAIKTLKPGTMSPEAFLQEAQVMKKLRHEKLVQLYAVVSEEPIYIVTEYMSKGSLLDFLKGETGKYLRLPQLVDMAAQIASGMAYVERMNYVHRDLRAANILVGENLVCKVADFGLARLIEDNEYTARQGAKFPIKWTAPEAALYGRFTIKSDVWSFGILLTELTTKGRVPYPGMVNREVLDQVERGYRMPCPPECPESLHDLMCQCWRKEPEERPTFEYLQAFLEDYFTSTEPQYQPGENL
T1 sequence (Q07912 whole entry): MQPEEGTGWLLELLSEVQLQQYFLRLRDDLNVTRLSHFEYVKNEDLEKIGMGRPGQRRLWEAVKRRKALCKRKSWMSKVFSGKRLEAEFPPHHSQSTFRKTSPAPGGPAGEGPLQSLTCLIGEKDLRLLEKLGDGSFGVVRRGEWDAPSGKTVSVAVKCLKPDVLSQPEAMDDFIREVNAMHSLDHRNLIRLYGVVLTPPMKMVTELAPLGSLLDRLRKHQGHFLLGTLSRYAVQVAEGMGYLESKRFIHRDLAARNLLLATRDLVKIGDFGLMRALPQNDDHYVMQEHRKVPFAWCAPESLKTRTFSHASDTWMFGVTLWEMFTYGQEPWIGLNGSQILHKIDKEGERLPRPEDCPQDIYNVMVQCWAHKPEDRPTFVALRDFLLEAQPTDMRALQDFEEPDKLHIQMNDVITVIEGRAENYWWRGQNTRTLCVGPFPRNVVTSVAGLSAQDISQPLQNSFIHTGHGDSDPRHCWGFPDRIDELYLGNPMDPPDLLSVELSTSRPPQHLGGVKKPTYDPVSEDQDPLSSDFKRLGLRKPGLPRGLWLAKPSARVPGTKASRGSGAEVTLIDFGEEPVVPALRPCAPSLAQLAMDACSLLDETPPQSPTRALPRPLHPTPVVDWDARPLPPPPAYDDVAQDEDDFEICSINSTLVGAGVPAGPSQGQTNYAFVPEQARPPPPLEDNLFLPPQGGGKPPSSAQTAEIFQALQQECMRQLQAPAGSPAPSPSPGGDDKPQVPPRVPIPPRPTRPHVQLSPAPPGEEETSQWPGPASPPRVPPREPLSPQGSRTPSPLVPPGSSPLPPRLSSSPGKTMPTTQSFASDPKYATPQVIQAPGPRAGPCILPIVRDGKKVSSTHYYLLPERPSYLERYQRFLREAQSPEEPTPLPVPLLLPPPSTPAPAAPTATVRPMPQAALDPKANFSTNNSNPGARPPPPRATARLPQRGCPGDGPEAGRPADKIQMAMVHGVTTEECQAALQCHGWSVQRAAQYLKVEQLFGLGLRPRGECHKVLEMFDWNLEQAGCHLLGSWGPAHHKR

Turning to `C[C@]12CCC(=O)C[C@@H]1CC[C@@H]1[C@@H]2CC[C@]2(C)[C@@H](O)CC[C@@H]12` [DHT], the “H4 Y88-phosphorylation” value in assay [1] is listed as “remained unaffected”.

For `Cc1nc(Nc2ncc(C(=O)Nc3c(C)cccc3Cl)s2)cc(N2CCN(CCO)CC2)n1` [Dasatinib], in assay [2], the “Growth of LNCaP cells expressing constitutively activated ACK1, xenograft” value is on record as “significantly reduced”. In the case of `CN1CCN(c2ccc(Nc3ncc(Cl)c(NCc4ccco4)n3)cc2)CC1` [Example 1, 5-Chloro-N4-(furan-2-ylmethyl)-N2-(4-(4-methylpiperazin-1-yl)phenyl)pyrimidine-2,4-diamine], the inhibition at 10 µM at ACK1 [3] was found to be 96%. Same read-out and setting: under `CN1CCN(c2ccc(Nc3ncc(Cl)c(NCC4CCCN4)n3)cc2)CC1` (centres unmarked) [Example 2, 5-Chloro-N2-(4-(4-methylpiperazin-1-yl)phenyl)-N4-(pyrrolidin-2-ylmethyl)pyrimidine-2,4-diamine tri-TFA salt] stands 18.3%; under `Cc1ccc(CNc2nc(Nc3ccc(N4CCN(C)CC4)cc3)ncc2Cl)o1` [Example 3, 5-Chloro-N4-((5-methylfuran-2-yl)methyl)-N2-(4-(4-methylpiperazin-1-yl)phenyl)-pyrimidine-2,4-diamine], 90.9%. Same read-out and setting: then `CN1CCN(c2ccc(Nc3ncc(Cl)c(NCC4CCCCO4)n3)cc2)CC1` (centres unmarked) [Example 4, 5-Chloro-N2-(4-(4-methylpiperazin-1-yl)phenyl)-N4-((tetrahydro-2H-pyran-2-yl)methyl)pyrimidine-2,4-diamine hydrochloride], with 97%.

For `CN1CCN(c2ccc(Nc3ncc(Cl)c(NCC4CCCC4)n3)cc2)CC1` [Example 5, 5-Chloro-N4-(cyclopentylmethyl)-N2-(4-(4-methylpiperazin-1-yl)phenyl)pyrimidine-2,4-diamine], the inhibition at 10 µM on ACK1 [3] stood at 97%. Still for that read-out and setting: then `CN1CCN(c2ccc(Nc3ncc(Cl)c(NCC4CCCN4C)n3)cc2)CC1` (centres unmarked) [Example 6, 5-Chloro-N2-(4-(4-methylpiperazin-1-yl)phenyl)-N4-((1-methylpyrrolidin-2-yl)methyl)pyrimidine-2,4-diamine tri TFA salt], with 35.6%; and `CN1CCN(c2ccc(Nc3ncc(Cl)c(NCCc4ccccc4)n3)cc2)CC1` [Example 7, 5-chloro-N2-(4-(4-methylpiperazin-1-yl)phenyl)-N4-phenethylpyrimidine-2,4-diamine], with 91.9%; and `CN1CCN(c2ccc(Nc3ncc(Cl)c(NCCCc4ccccc4)n3)cc2)CC1` [Example 8, 5-Chloro-N2-(4-(4-methylpiperazin-1-yl)phenyl)-N4-(3-phenylpropyl)pyrimidine-2,4-diamine], with 85.8%. Still for that read-out and setting: under `CN1CCN(c2ccc(Nc3ncc(Cl)c(NCCc4ccc(Cl)cc4Cl)n3)cc2)CC1` [Example 9, 5-Chloro-N4-(2,4-dichlorophenethyl)-N2-(4-(4-methylpiperazin-1-yl)phenyl)pyrimidine-2,4-diamine] stands 36.5%; under `CN1CCN(c2ccc(Nc3ncc(Cl)c(NCCc4c(Cl)cccc4Cl)n3)cc2)CC1` [Example 10, 5-Chloro-N4-(2,6-dichlorophenethyl)-N2-(4-(4-methylpiperazin-1-yl)phenyl)pyrimidine-2,4-diamine], 97%; under `CN1CCN(c2ccc(Nc3ncc(Cl)c(NCCc4ccccc4Cl)n3)cc2)CC1` [Example 11, 5-Chloro-N4-(2-chlorophenethyl)-N2-(4-(4-methylpiperazin-1-yl)phenyl)pyrimidine-2,4-diamine], 91%. `CN1CCN(c2ccc(Nc3ncc(Cl)c(NCCc4c(F)cccc4Cl)n3)cc2)CC1` [Example 12, 5-Chloro-N4-(2-chloro-6-fluorophenethyl)-N2-(4-(4-methylpiperazin-1-yl)phenyl)pyrimidine-2,4-diamine]: the inhibition at 10 µM on ACK1 [3] was found to be 93%. `CN1CCN(c2ccc(Nc3ncc(Cl)c(NCCc4ccccc4F)n3)cc2)CC1` [Example 13, 5-Chloro-N4-(2-fluorophenethyl)-N2-(4-(4-methylpiperazin-1-yl)phenyl)pyrimidine-2,4-diamine]: the inhibition at 10 µM at ACK1 [3] was 91%.

For `COc1ccccc1CCNc1nc(Nc2ccc(N3CCN(C)CC3)cc2)ncc1Cl` [Example 14, 5-Chloro-N4-(2-methoxyphenethyl)-N2-(4-(4-methylpiperazin-1-yl)phenyl)pyrimidine-2,4-diamine], the inhibition at 10 µM on ACK1 [3] amounted to 98%. As for `CN1CCN(c2ccc(Nc3ncc(Cl)c(NCCc4ccccn4)n3)cc2)CC1` [Example 15, 5-Chloro-N2-(4-(4-methylpiperazin-1-yl)phenyl)-N4-(2-(pyridin-2-yl)ethyl)pyrimidine-2,4-diamine], the inhibition at 10 µM at ACK1 [3] stood at 91.9%. Take `Cc1ccccc1CCNc1nc(Nc2ccc(N3CCN(C)CC3)cc2)ncc1Cl` [Example 16, 5-Chloro-N4-(2-methylphenethyl)-N2-(4-(4-methylpiperazin-1-yl)phenyl)pyrimidine-2,4-diamine]: the inhibition at 10 µM on ACK1 [3] came to 91%.

Take `COc1cc(N2CCN(C)CC2)ccc1Nc1ncc(Cl)c(NCCc2c(F)cccc2Cl)n1` [Example 20, 5-Chloro-N^4-(2-chloro-6-fluorophenethyl)-N^2-[2-methoxy-4-(4-methylpiperazin-1-yl)phenyl]pyrimidine-2,4-diamine]: the IC50 is 0.007 µM on ALK, 1.72 µM against JAK2, 11.5 µM against c-Src and 0.027 µM at ACK1 [4]. The corresponding values for `COc1ccccc1CCNc1nc(Nc2ccc(N3CCN(C)CC3)cc2OC)ncc1Cl` [Example 21, 5-Chloro-N^2-[2-methoxy-4-(4-methylpiperazin-1-yl)phenyl]-N^4-(2-methoxyphenethyl)pyrimidine-2,4-diamine] are 0.002 µM, 0.86 µM, 8.25 µM and 0.024 µM. As for `CN1CCN(C(=O)Cc2ccc(Nc3ncc(Cl)c(NC[C@H]4CCCO4)n3)cc2)CC1` [Example 24, (R)-2-(4-((5-chloro-4-(((tetrahydrofuran-2-yl)methyl)amino)pyrimidin-2-yl)amino)phenyl)-1-(4-methylpiperazin-1-yl)ethan-1-one], the inhibition at 10 µM on ACK1 [3] turned out to be 86.8%. Still for that read-out and setting: then `CN1CCC(NC(=O)c2ccc(Nc3ncc(Cl)c(NC[C@H]4CCCO4)n3)cc2F)CC1` [Example 25, (R)-4-((5-chloro-4-(((tetrahydrofuran-2-yl)methyl)amino)pyrimidin-2-yl)amino)-2-fluoro-N-(1-methylpiperidin-4-yl)benzamide], with 86.9%. Take `COc1cc(N2CCN(C)CC2)ccc1Nc1ncc(Cl)c(NC[C@H]2CCCO2)n1` [Example 26, (R)-5-Chloro-N^2-[2-methoxy-4-(4-methylpiperazin-1-yl)phenyl]-N^4-[(tetrahydrofuran-2-yl)methyl]pyrimidine-2,4-diamine]: the IC50 against ALK worked out at 0.034 µM; against JAK2, 1.08 µM; on c-Src, 16.8 µM; on ACK1 [4], 0.039 µM. As to `COc1cc(Nc2c(C#N)cnc3cc(OCCCN4CCN(C)CC4)c(OC)cc23)c(Cl)cc1Cl` [bosutinib], in assay [5], the “cell migration and invasion” value is “inhibit cell migration and invasion”; the viability entry was “not viability”.

With `CNC(=O)c1ccc(N2C(=S)N(c3ccc(C#N)c(C(F)(F)F)c3)C(=O)C2(C)C)cc1F` [enzalutamide], in assay [1], the “H4 Y88-phosphorylation” value is given as “remained unaffected”.
